In PMC12644596 (Scientific Reports, 2025):

Test: MTT test, normal cells, 24 h
Assay type: cell-based
Details: human, human dermal adult fibroblasts (HDFa)

O=[N+]([O-])c1ccc(NCCCCN=C=S)c2nonc12 [NBDC4NCS, N-(4-isothiocyanatobutyl)-7-nitro-2,1,3-benzoxadiazol-4-amine]
viability at 24 h: ~70%
